Measurements as given in patent publication US5750362A, “Methods for identifying substances with a potential herbicidal or growth-regulating action by means of plant transporter proteins, the use of the transporter proteins, and substances with a herbicidal and growth-regulating action” (BASF Aktiengesellschaft, priority 1993, dated 1998).

Columns and labels:
[1] = target: T1, amino-acid transporter AAP2 (Arabidopsis thaliana, UniProt Q38967); experiment: Uptake of radiolabeled L-proline by yeast mutant 22457d-AAP2 expressing the plant amino-acid transporter; format: cell-based; settings: L-[14C]-proline uptake, read-out: Activity relative to control [%]
T1 construct: expressed in transfected cells; host or cells: Saccharomyces cerevisiae mutant 22574d (also printed 22457d)
T1 sequence (Q38967 1-493): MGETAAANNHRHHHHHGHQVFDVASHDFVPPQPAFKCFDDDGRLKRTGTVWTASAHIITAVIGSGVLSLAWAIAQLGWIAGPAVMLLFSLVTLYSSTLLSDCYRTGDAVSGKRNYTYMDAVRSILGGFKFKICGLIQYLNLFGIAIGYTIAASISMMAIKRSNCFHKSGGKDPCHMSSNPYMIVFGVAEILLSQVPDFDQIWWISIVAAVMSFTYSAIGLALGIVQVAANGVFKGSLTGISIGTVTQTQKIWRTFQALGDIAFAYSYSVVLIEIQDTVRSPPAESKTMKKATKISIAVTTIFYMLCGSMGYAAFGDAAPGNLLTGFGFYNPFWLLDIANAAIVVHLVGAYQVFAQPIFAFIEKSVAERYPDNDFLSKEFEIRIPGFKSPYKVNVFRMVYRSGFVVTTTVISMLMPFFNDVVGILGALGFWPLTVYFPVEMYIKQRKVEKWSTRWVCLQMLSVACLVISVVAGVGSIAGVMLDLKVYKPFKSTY
Description: Transporter investigations are carried out on the yeast mutant 22574d (Jauniaux & Grenson, Eur. J. Biochem. 190: 39-44, 1990), which harbors a mutation in the gene for amino-acid permease, and on the yeast mutant JT 16 (Tanaka and Fink, Gene 38: 205-214, 1985) which is incapable of histidine uptake, for identification of inhibitors of plant amino-acid transporters. These mutants are transformed with cDNA sequences which code for plant amino-acid transporters and lead to expression of functional transporters in the yeast cells. The cDNA sequences are cDNA sequences which code for the amino-acid transporters AAP1 and AAP2 from Arabidopsis thaliana (Frommer et al., 1993, Proc. Natl. Acad. Sci. USA 90: 5944-5948; Kwart et al., 1993, Plant J. 4:993-1002). For the measurements, cells of these mutants are cultured in minimal medium (NAAG+5 mmol/l proline) at 28° C. and harvested in the logarithmic phase (OD600 =0.6). The cells are spun down in a centrifuge at 4000 rpm and 4 degrees Celsius for 10 minutes and washed 2× with AUB buffer (modified AAB buffer, Ljungdahl et al.). The cell concentration is adjusted to an OD600 of 25 in AUB buffer.
100 μl portions of the cell suspension are mixed with 100 μl of a 1 mmol/l L-proline solution (18.5 kBq of L-[14C]-proline) and various concentrations of the appropriate substance to be investigated. After 20, 60, 120 and 180 seconds, a 50 μl aliquot is removed, diluted in 4 ml -of ice-cold AUB buffer and filtered through glass fever [sic] filter. In order to remove nonspecifically bound L-[14C]-proline, the cells are washed 2× with 4 ml of ice-cold water each time. The radioactivity retained on the glass filter is then measured in a liquid scintillation counter. The radioactivity reflects the amount of radiolabeled proline taken up by the cells. Uptake of radiolabeled proline without addition of a potential inhibitor is determined as one control. Cells of each of the mutants 22574d and JY 16 which have not been transformed with cDNA sequences coding for plant amino-acid transporters are used as further control. Results of measurements of this type on the mutants 22457d-AAP2 which expresses the amino-acid transporter AAP2 from Arabisopsis [sic] thaliana are shown in the following table.
For the investigations, yeast cells of the strain 22457d were transformed with a cDNA sequence which codes for the amino-acid transporter AAP2, and the uptake of radiolabeled proline in the presence of various substances was determined. The various substances tested, their concentration, and the activity of the transporter, shown as percentage activity of the control with which no potential inhibitors were added, are indicated.

[2] = target: T2, sucrose transporter S21 (SoSUT1) (Spinacia oleracea, UniProt Q03411); experiment: [14C]-sucrose uptake by yeast strain SUSY7 expressing the spinach sucrose transporter; format: cell-based; settings: [14C]-sucrose uptake, pH 3.8, read-out: Activity relative to the control [%]
T2 construct: expressed in transfected cells; host or cells: Saccharomyces cerevisiae SUSY7
T2 sequence (Q03411 1-525): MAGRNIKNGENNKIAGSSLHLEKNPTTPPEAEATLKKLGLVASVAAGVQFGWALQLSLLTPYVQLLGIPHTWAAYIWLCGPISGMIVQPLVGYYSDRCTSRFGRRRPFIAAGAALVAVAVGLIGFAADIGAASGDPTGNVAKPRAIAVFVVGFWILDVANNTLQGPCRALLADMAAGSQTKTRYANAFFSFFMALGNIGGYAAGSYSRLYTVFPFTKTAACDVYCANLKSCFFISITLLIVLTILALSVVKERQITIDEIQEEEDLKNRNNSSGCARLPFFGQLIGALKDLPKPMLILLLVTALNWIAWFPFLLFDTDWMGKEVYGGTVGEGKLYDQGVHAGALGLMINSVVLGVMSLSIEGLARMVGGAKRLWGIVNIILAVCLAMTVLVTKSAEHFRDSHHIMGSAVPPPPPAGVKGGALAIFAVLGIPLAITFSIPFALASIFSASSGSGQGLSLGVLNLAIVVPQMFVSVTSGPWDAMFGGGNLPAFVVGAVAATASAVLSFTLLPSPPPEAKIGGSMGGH
Description: Yeast cells of the strain SUSY7 (Riesmeier et al., 1992, EMBO J. 11: 4705-4713) are used to identify substances which have an inhibitory effect on sucrose transporters from spinach. Cells of this strain are transformed with a cDNA sequence which codes for the sucrose transporter S21 (SoSUT1) from spinach and which ensures expression of a functional transporter in the cells. The yeast cells are cultured in minimal medium (SD+2% (w/v) sucrose, pH 3.8) at 28° C. and harvested in the logarithmic phase (OD600 =0.6). The cells are spun down at 4000 rpm for 10 minutes and washed twice with SD medium. A cell concentration of c=50 g/l in SD medium is adjusted according to the wet weight of the cells, and 200 μl aliquot fractions are taken. Before the actual reaction, the cells are incubated in 10 mM glucose for 5 min and adjusted to pH 3.8 with MES buffer. The reaction is started by adding 200 μl of a 0.2 mmol/l [14C]-sucrose solution (3 mCi/mmol) in SD medium (pH 3.8). After 20, 60, 120, 180 and 240 seconds, 70 μl portions of the suspension are removed and pipetted into 4 ml of ice-cold water in order to stop the reaction. The cells are filtered off on glass fiber filters and washed twice with ice-cold water. The radioactivity on the filters is subsequently determined in a liquid scintillation counter. The substances to be tested are added 30 seconds before addition of the sucrose. The uptake of radiolabeled sucrose without addition of a potential inhibitor is determined as one control. Cells of the strain SUSY7 which are not transformed with cDNA sequences coding for a sucrose transporter from spinach are employed as further control.
The various tested substances, their concentration and the activity of the transporter, shown as percentage activity of the control in which no potential inhibitors were added, are indicated. Substances which specifically show an inhibitory effect on the sucrose transporter S21 (SoSUT1), are tested for their herbicidal and growth-regulating effect on whole plants.

SMILES | remaining activity at 1000 µM ([1]; tested substance 1 mM) | remaining activity at 500 µM ([2]; tested substance 0.5 mM) | remaining activity at 10 µM ([1]; tested substance 10 μM) | remaining activity at 10 µM ([2]; tested substance 10 μM)
CCOC(=O)OC(=O)OCC [DEPC, diethyl pyrocarbonate] | 3.1 ± 1.2% | 6% |  | 
N#CC(C#N)=NNc1cccc(Cl)c1 [CCCP] |  |  | 15.6 ± 2.1% | 10%
